In patent US20240180998A1, “MULTILAYERED PATCH” (KØBENHAVNS UNIVERSITET, priority 2021, published 2024):
≈ marks a conversion by molar mass, not a printed value.

Tests used:
[1] = Drug loading of freeze-dried foam (disintegration of foam discs and quantification); format: physicochemical; details: for Loading efficiency (%): mean ± standard deviation
Experimental: The samples were incubated for 3 h at 37° C. and aliquots of 100 μL were withdrawn from each of the diffusion cells at specific time points and replenished with 100 μL warm (37° C.) hHBSS. The exact peptide dose was determined by disintegrating a 10 mm foam disc of known weight in 1 mL water for at least 1 h at RT. All samples were centrifuged (10,000 rpm/9279×g, 10 min, 4° C.) and the concentration of desmopressin in the supernatant was determined by reversed phase high performance liquid chromatography with UV detection (RP-HPLC-UV). Discs (10 mm in diameter) of NFF multilayered DDS were fixed in Ussing chamber […] […] 2 mL warm (37° C.) hHBSS without BSA pH 6.8 was added to each side of the sample. The samples were incubated for 3 h at 37° C. and aliquots of 100 μL were withdrawn from each of the diffusion cells at specific time points and replenished with 100 μl warm (37° C.) hHBSS without BSA pH 6.8.

[2] = Huang et al., 2020, cited from earlier work
C. albicans = details: Huang et al., 2020; cited from earlier work
[3] = drug loaded in foam, desmopressin at theoretical loading 29.13 μg/mg

Row | Loading efficiency (%) ([1]; desmopressin at theoretical loading 107.17 μg/mg) | Loading efficiency (%) [1, 3] [%] | specific loading of desmopressin ([1]; foam of NFF, discs of 10 mm) | SMILES | Log P [2] | aqueous solubility ([2]; in water) [µg/mL] | minimal fungicidal concentration (MFC) (C. albicans) [µg/mL] | minimal inhibitory concentration (MIC) (C. albicans) [µg/mL]
1 | 117 ± 1 | 97 ± 1 | 28.2±0.2 μg per mg of foam | NC(=O)CC[C@@H]1NC(=O)[C@H](Cc2ccccc2)NC(=O)[C@H](Cc2ccc(O)cc2)NC(=O)CCSSC[C@@H](C(=O)N2CCC[C@H]2C(=O)N[C@H](CCCN=C(N)N)C(=O)NCC(N)=O)NC(=O)[C@H](CC(N)=O)NC1=O [Desmopressin] | – | – | – | –
2 | – | 110 ± 2 | – | Clc1ccccc1C(c1ccccc1)(c1ccccc1)n1ccnc1 [Clotrimazole] | 6.3 | 0.49 (≈ 1.42 µM) | 4 (≈ 11.6 µM) | 1 (≈ 2.9 µM)
